Literature values, collected in patent publication US20080107723A1, “Methods of Treating Pulmonary Distress” (priority 2006, published 2008).

B1: Pulmozyme: recombinant human Dnase administered by inhalation (protein, UniProt P24855 23-282, looked up)
Deoxyribonuclease-1: LKIAAFNIQTFGETKMSNATLVSYIVQILSRYDIALVQEVRDSHLTAVGKLLDNLNQDAPDTYHYVVSEPLGRNSYKERYLFVYRPDQVSAVDSYYYDDGCEPCGNDTFNREPAIVRFFSRFTEVREFAIVPLHAAPGDAVAEIDALYDVYLDVQEKWGLEDVMLMGDFNAGCSYVRPSQWSSIRLWTSPTFQWLIPDSADTTATPTHCAYDRIVVAGMLLRGAVVPDSALPFNFQAAYGLSDQLAQAISDHYPVEVMLK

Tests used:
[1] = administered by inhalation; CF patients
[2] = system: colony forming units (CFU); conditions: administered by inhalation; CF patients

Row | Molecule | improvement in FEV1 [1] | reduction in colony forming units (CFU) [2]
1 | NC[C@H]1O[C@H](O[C@H]2[C@H](O)[C@@H](O[C@H]3O[C@H](CO)[C@@H](O)[C@H](N)[C@H]3O)[C@H](N)C[C@@H]2N)[C@H](N)C[C@@H]1O [Tobramycin] | approximately 10% | about 2 log units
2 | B1 | approximately 10% | –
